Measured values: PubChem BioAssay (NCI)
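A five-concentration, 48-hour dose response in 96-well plates underlies each endpoint, interpolated linearly between surrounding concentrations. TGI: total growth inhibition.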

How the values were obtained:
Experiment in all cases: DTP human tumour cell line panel, 48 h
K-562 leukemia = tested on: K-562 leukemia
NCI/ADR-RES ovarian = tested on: NCI/ADR-RES ovarian
SF-295 CNS = tested on: SF-295 CNS
MCF7 breast = tested on: MCF7 breast
NCI-H460 lung = tested on: NCI-H460 lung
SW-620 colon = tested on: SW-620 colon
HL-60(TB) leukemia = tested on: HL-60(TB) leukemia
SF-268 CNS = tested on: SF-268 CNS
SK-MEL-5 melanoma = tested on: SK-MEL-5 melanoma
CAKI-1 renal = tested on: CAKI-1 renal

Structure (SMILES) | TGI (K-562 leukemia) [µM] | TGI (NCI/ADR-RES ovarian) [µM] | TGI (SF-295 CNS) [µM] | TGI (MCF7 breast) [µM] | TGI (NCI-H460 lung) [µM] | TGI (SW-620 colon) [µM] | TGI (HL-60(TB) leukemia) [µM] | TGI (SF-268 CNS) [µM] | TGI (SK-MEL-5 melanoma) [µM] | TGI (CAKI-1 renal) [µM]
CC(C)(C)OC(=O)[C@@H]1CCC(=O)N1C1(c2ccccc2)c2ccccc2-c2ccccc21 | > 100 | > 100 | 61.1 | > 100 | > 100 | 87.1 | 61.8 | > 100 | 51.9 | > 100
CSC(SC)=C(C#N)C(=O)Nc1cccc(Cl)c1 | > 100 | > 100 | > 100 | > 100 | > 100 | > 100 | 35.2 | > 100 | 40.7 | > 100
N#CC1(C#N)C(C#N)(C#N)C1(C#N)C(N)=O | > 100 | > 100 | > 100 | > 100 | > 100 | > 100 | > 100 | > 100 | > 100 | > 100
COC(=O)c1ccccc1C1CN=NC12Cc1c(ccc3c1CCC3)C2=O (stereo not given) | > 100 | > 100 | > 100 | > 100 | > 100 | > 100 | 59.3 | > 100 | 58.6 | > 100
NNC(=O)Nc1nc2ccc(NN)cc2[nH]1 | 42.1 | > 100 | > 100 | 82.5 | > 100 | 67.4 | 32.4 | > 100 | 51.9 | > 100
CN(Cc1cnc2nc(N)nc(N)c2n1)c1ccc(C(=O)NC23CC4CC(CC(C4)C2)C3)cc1 | 65.8 | > 100 | 21.1 | 23.6 | 18.6 | > 100 | > 100 | 22.7 | 17.7 | 27.8
